Results from US20260191968A1, “PROTAC DEGRADERS OF MLLT1 AND/OR MLLT3” (DARK BLUE THERAPEUTICS LTD, priority 2024, published 2026).

What was measured:
MLLT1 = target: T1, MLLT1 (Homo sapiens, UniProt Q03111); assay: MLLT1 degradation assay in MV4-11 cells (JESS chemiluminescent detection), three concentrations, 24 h; type: cell-based; conditions: with respect to DMSO control
T1 construct: host or cells: MV4-11
T1 sequence (Q03111 1-559): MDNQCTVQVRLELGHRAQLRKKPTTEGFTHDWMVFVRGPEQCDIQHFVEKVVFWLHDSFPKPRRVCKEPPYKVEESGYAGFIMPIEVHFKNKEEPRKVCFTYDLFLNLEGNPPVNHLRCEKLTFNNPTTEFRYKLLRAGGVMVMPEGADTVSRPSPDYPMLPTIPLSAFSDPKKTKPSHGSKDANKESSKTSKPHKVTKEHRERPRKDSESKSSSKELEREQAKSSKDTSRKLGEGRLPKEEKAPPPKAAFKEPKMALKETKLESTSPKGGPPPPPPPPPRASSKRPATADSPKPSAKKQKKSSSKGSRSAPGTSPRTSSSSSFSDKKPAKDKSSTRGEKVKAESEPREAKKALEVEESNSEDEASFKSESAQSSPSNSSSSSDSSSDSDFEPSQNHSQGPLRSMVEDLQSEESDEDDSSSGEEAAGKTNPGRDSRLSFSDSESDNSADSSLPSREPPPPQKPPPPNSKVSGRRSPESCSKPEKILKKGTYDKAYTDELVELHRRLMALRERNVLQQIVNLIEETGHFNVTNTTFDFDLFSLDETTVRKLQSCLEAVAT
Procedure, shortened: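 Read-out is % MLLT1 degradation versus DMSO, from band peak areas on a JESS chemiluminescent system. Cells (MV4-11) were exposed for 24 h at 37° C to three compound levels, 10, 100 and 1000 nM, in 0.1% DMSO.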

MV4-11 cells = assay: MV4-11 cellular proliferative assay, Assay Format B (CTG 2.0, 168 h); type: cell-based; conditions: Homo sapiens, 168 h (7 days), CTG 2.0, read-out: IC50 (MV4-11 cellular proliferative assay, Assay format B)
Method: MV4-11 cells at a confluency of ~50-80% was used for cell growth assay. 600 cells/well in a 384-well opaque cell culture plate (6007680; Perkin Elmer) were seeded in 40 μL of complete medium (IMDM+10% FBS+1X Penicillin-Streptomycin). Cells were incubated overnight at 37° C., 5% CO2. 10 mM DMSO stocks were prepared, cells were treated with 10 concentrations of test compounds starting from 1 uM or 100 nM, 3-fold dilution in 10 uL (5×concentration) of complete medium. Final DMSO concentration was 0.3%. Culture plates were centrifuged at 40×g, 30s. Cells were incubated with compounds for 168 h (7 days). After 7 days, 20 uL CTG 2.0 reagent (G9242; Promega) was added per well and luminescence reading was taken in Envision Xcite 2105 multimode plate reader. Data was analyzed in GraphPad Prism 10.0 and data was shown as % viability with respect to DMSO control and dose-response curves were generated using four parameter logistic regression. Assay quality was determined by z-factor calculation using positive and negative controls.

Compound	MLLT1% Degradation @ 0.01 μM (MLLT1)	MLLT1% Degradation @ 0.1 μM (MLLT1)	MLLT1% Degradation @ 1 μM (MLLT1)	IC50 (MV4-11 cells) [µM]
CN1CCC[C@@H]1c1[nH]c2cc(NC(=O)c3ccc(OCCC4CCN(c5cccc6c5CN(C5CCC(=O)NC5=O)C6=O)CC4)cc3)ncc2c1Cl (mixture of isomers) [Example 160, N-(3-chloro-2-((R)-1-methylpyrrolidin-2-yl)-1H-pyrrolo[3,2-c]pyridin-6-yl)-4-(2-(1-(2-(2,6-dioxopiperidin-3-yl)-1-oxoisoindolin-4-yl)piperidin-4-yl)ethoxy)benzamide]	A (Category A: A ≥ 75% degradation)	A (Category A: A ≥ 75% degradation)	A (Category A: A ≥ 75% degradation)	≤ 0.1
CN1CCC[C@@H]1c1cc2cnc(NC(=O)c3ccc(OCCC4CCN(c5cccc6c5CN(C5CCC(=O)NC5=O)C6=O)CC4)cc3F)cc2[nH]1 (mixture of isomers) [Example 171, 4-(2-(1-(2-(2,6-dioxopiperidin-3-yl)-1-oxoisoindolin-4-yl)piperidin-4-yl)ethoxy)-2-fluoro-N-(2-((R)-1-methylpyrrolidin-2-yl)-1H-pyrrolo[3,2-c]pyridin-6-yl)benzamide]	A (Category A: A ≥ 75% degradation)	A (Category A: A ≥ 75% degradation)	A (Category A: A ≥ 75% degradation)	≤ 0.1
CN1CCC[C@@H]1c1cc2cnc(NC(=O)c3ccc(CCCC4CCN(c5cccc6c5CN(C5CCC(=O)NC5=O)C6=O)CC4)cc3F)cc2[nH]1 (mixture of isomers) [Example 174, 4-(3-(1-(2-(2,6-dioxopiperidin-3-yl)-1-oxoisoindolin-4-yl)piperidin-4-yl)propyl)-2-fluoro-N-(2-((R)-1-methylpyrrolidin-2-yl)-1H-pyrrolo[3,2-c]pyridin-6-yl)benzamide]	A (Category A: A ≥ 75% degradation)	A (Category A: A ≥ 75% degradation)	A (Category A: A ≥ 75% degradation)	≤ 0.1
CN1CCC[C@@H]1c1cc2cnc(NC(=O)c3ccc(CCCC#Cc4cccc5c4CN([C@H]4CCC(=O)NC4=O)C5=O)cc3)cc2[nH]1 (relative stereo) [Example 102, 4-(5-(2-((rel-S)-2,6-dioxopiperidin-3-yl)-1-oxoisoindolin-4-yl)pent-4-yn-1-yl)-N-(2-((R)-1-methylpyrrolidin-2-yl)-1H-pyrrolo[3,2-c]pyridin-6-yl)benzamide]	A (Category A: A ≥ 75% degradation)	A (Category A: A ≥ 75% degradation)	A (Category A: A ≥ 75% degradation)	≤ 0.1
CN1CCC[C@@H]1c1cc2cnc(NC(=O)c3ccc(CCCC#Cc4cccc5c4CN([C@@H]4CCC(=O)NC4=O)C5=O)cc3)cc2[nH]1 (relative stereo) [Example 103, 4-(5-(2-((rel-R)-2,6-dioxopiperidin-3-yl)-1-oxoisoindolin-4-yl)pent-4-yn-1-yl)-N-(2-((R)-1-methylpyrrolidin-2-yl)-1H-pyrrolo[3,2-c]pyridin-6-yl)benzamide]	A (Category A: A ≥ 75% degradation)	A (Category A: A ≥ 75% degradation)	A (Category A: A ≥ 75% degradation)	≤ 0.1
CN1CCC[C@@H]1c1cc2cnc(NC(=O)c3ccc(N4CCN(CC5CCN(c6cccc7c6CN([C@H]6CCC(=O)NC6=O)C7=O)CC5)CC4)cc3)cc2[nH]1 (relative stereo) [Example 117, 4-(4-((1-(2-((rel-S)-2,6-dioxopiperidin-3-yl)-1-oxoisoindolin-4-yl)piperidin-4-yl)methyl)piperazin-1-yl)-N-(2-((R)-1-methylpyrrolidin-2-yl)-1H-pyrrolo[3,2-c]pyridin-6-yl)benzamide]	B (Category B: 50% ≤ B < 75% degradation)	A (Category A: A ≥ 75% degradation)	B (Category B: 50% ≤ B < 75% degradation)	≤ 0.1
CN1CCC[C@@H]1c1cc2cnc(NC(=O)c3ccc(N4CCN(CC5CCN(c6cccc7c6CN([C@@H]6CCC(=O)NC6=O)C7=O)CC5)CC4)cc3)cc2[nH]1 (relative stereo) [Example 118, 4-(4-((1-(2-((rel-R)-2,6-dioxopiperidin-3-yl)-1-oxoisoindolin-4-yl)piperidin-4-yl)methyl)piperazin-1-yl)-N-(2-((R)-1-methylpyrrolidin-2-yl)-1H-pyrrolo[3,2-c]pyridin-6-yl)benzamide]	C (Category C: 25% ≤ C < 50% degradation)	B (Category B: 50% ≤ B < 75% degradation)	B (Category B: 50% ≤ B < 75% degradation)	≤ 0.1
C[C@@H]1CN(CC2CCN(c3cccc4c3CN(C3CCC(=O)NC3=O)C4=O)CC2)CCN1c1ccc(C(=O)Nc2cc3[nH]c([C@H]4CCCN4C)cc3cn2)cc1 (relative stereo) [Example 135, 4-((R)-4-((1-(2-((rel-S)-2,6-dioxopiperidin-3-yl)-1-oxoisoindolin-4-yl)piperidin-4-yl)methyl)-2-methylpiperazin-1-yl)-N-(2-((R)-1-methylpyrrolidin-2-yl)-1H-pyrrolo[3,2-c]pyridin-6-yl)benzamide]	A (Category A: A ≥ 75% degradation)	A (Category A: A ≥ 75% degradation)	A (Category A: A ≥ 75% degradation)	≤ 0.1
CN1CCC[C@@H]1c1cc2cnc(NC(=O)c3ccc(CCCC4CCN(c5cccc6c5CN([C@H]5CCC(=O)NC5=O)C6=O)CC4)cc3F)cc2[nH]1 (relative stereo) [Example 175, 4-(3-(1-(2-((rel-S)-2,6-dioxopiperidin-3-yl)-1-oxoisoindolin-4-yl)piperidin-4-yl)propyl)-2-fluoro-N-(2-((R)-1-methylpyrrolidin-2-yl)-1H-pyrrolo[3,2-c]pyridin-6-yl)benzamide]	A (Category A: A ≥ 75% degradation)	A (Category A: A ≥ 75% degradation)	A (Category A: A ≥ 75% degradation)	≤ 0.1
CN1CCC[C@@H]1c1cc2cnc(NC(=O)c3ccc(CCCC4CCN(c5cccc6c5CN([C@@H]5CCC(=O)NC5=O)C6=O)CC4)cc3F)cc2[nH]1 (relative stereo) [Example 176, 4-(3-(1-(2-((rel-R)-2,6-dioxopiperidin-3-yl)-1-oxoisoindolin-4-yl)piperidin-4-yl)propyl)-2-fluoro-N-(2-((R)-1-methylpyrrolidin-2-yl)-1H-pyrrolo[3,2-c]pyridin-6-yl)benzamide]	A (Category A: A ≥ 75% degradation)	A (Category A: A ≥ 75% degradation)	A (Category A: A ≥ 75% degradation)	≤ 0.1
CN1CCC[C@@H]1c1cc2cnc(NC(=O)c3ccc(CCCC4CCN(c5cccc6c5CN(C5CCC(=O)NC5=O)C6=O)CC4)cc3)cc2[nH]1 (stereo in doubt) [Example 77, 4-(3-(1-(2-((rel-S)-2,6-dioxopiperidin-3-yl)-1-oxoisoindolin-4-yl)piperidin-4-yl)propyl)-N-(2-((R)-1-methylpyrrolidin-2-yl)-1H-pyrrolo[3,2-c]pyridin-6-yl)benzamide]	A (Category A: A ≥ 75% degradation)	A (Category A: A ≥ 75% degradation)	A (Category A: A ≥ 75% degradation)	≤ 0.1
